# Columns and labels:
# Assay type in all cases: functional
# Streptococcus pyogenes [1] = assay: Selectivity ratio of MBC for Streptococcus pyogenes 01-968 harboring i-ermB gene to MIC for Streptococcus pyogenes 01-968 harboring i-ermB gene
# Streptococcus pneumoniae [2] = assay: Bactericidal activity against Streptococcus pneumoniae PU 09 harboring mef gene incubated for 16 to 20 hrs by CLSI based broth microdilution method; details: time 16-20 hrs
# Staphylococcus aureus [3] = assay: Antibacterial activity against methicillin-resistant Staphylococcus aureus PU 32 harboring i-ermA gene incubated for 16 to 20 hrs by CLSI based broth microdilution method; details: time 16-20 hrs
# Streptococcus pneumoniae [4] = assay: Antibacterial activity against Streptococcus pneumoniae PU 09 harboring mef gene incubated for 16 to 20 hrs by CLSI based broth microdilution method; details: time 16-20 hrs
# Haemophilus influenzae [5] = assay: Selectivity ratio of MBC for Haemophilus influenzae ATCC 49247 to MIC for Haemophilus influenzae ATCC 49247
# Staphylococcus aureus [6] = assay: Selectivity ratio of MBC for methicillin-resistant Staphylococcus aureus PU 32 harboring i-ermA gene to MIC for methicillin-resistant Staphylococcus aureus PU 32 harboring i-ermA gene
# Staphylococcus aureus [7] = assay: Antibacterial activity against methicillin-resistant Staphylococcus aureus PU 20 harboring c-ermA gene incubated for 16 to 20 hrs by CLSI based broth microdilution method; details: time 16-20 hrs
# Haemophilus influenzae [8] = assay: Bactericidal activity against Haemophilus influenzae ATCC 49247 incubated for 16 to 20 hrs by CLSI based broth microdilution method; details: time 16-20 hrs
# Streptococcus pneumoniae [9] = assay: Selectivity ratio of MBC for Streptococcus pneumoniae ATCC 49619 to MIC for Streptococcus pneumoniae ATCC 49619
# Streptococcus pneumoniae [10] = assay: Bactericidal activity against Streptococcus pneumoniae 07P390 harboring c-erm gene incubated for 16 to 20 hrs by CLSI based broth microdilution method; details: time 16-20 hrs
# Streptococcus pneumoniae [11] = assay: Selectivity ratio of MBC for Streptococcus pneumoniae PU 09 harboring mef gene to MIC for Streptococcus pneumoniae PU 09 harboring mef gene
# Streptococcus pyogenes [12] = assay: Antibacterial activity against Streptococcus pyogenes 01-968 harboring i-ermB gene incubated for 16 to 20 hrs by CLSI based broth microdilution method; details: time 16-20 hrs
# Streptococcus pneumoniae [13] = assay: Selectivity ratio of MBC for Streptococcus pneumoniae 07P390 harboring c-erm gene to MIC for Streptococcus pneumoniae 07P390 harboring c-erm gene
# Staphylococcus aureus [14] = assay: Bactericidal activity against methicillin-resistant Staphylococcus aureus PU 20 harboring c-ermA gene incubated for 16 to 20 hrs by CLSI based broth microdilution method; details: time 16-20 hrs
# Streptococcus pneumoniae [15] = assay: Antibacterial activity against Streptococcus pneumoniae ATCC 49619 incubated for 16 to 20 hrs by CLSI based broth microdilution method; details: time 16-20 hrs
# Streptococcus pneumoniae [16] = assay: Bactericidal activity against Streptococcus pneumoniae ATCC 49619 incubated for 16 to 20 hrs by CLSI based broth microdilution method; details: time 16-20 hrs
# Streptococcus pneumoniae [17] = assay: Antibacterial activity against Streptococcus pneumoniae 07P390 harboring c-erm gene incubated for 16 to 20 hrs by CLSI based broth microdilution method; details: time 16-20 hrs
# Staphylococcus aureus [18] = assay: Bactericidal activity against methicillin-resistant Staphylococcus aureus PU 32 harboring i-ermA gene incubated for 16 to 20 hrs by CLSI based broth microdilution method; details: time 16-20 hrs
# Haemophilus influenzae [19] = assay: Antibacterial activity against Haemophilus influenzae ATCC 49247 incubated for 16 to 20 hrs by CLSI based broth microdilution method; details: time 16-20 hrs
# Streptococcus pyogenes [20] = assay: Bactericidal activity against Streptococcus pyogenes 01-968 harboring i-ermB gene incubated for 16 to 20 hrs by CLSI based broth microdilution method; details: time 16-20 hrs
Structure (SMILES),Selectivity ratio (Streptococcus pyogenes [1]),MBC (Streptococcus pneumoniae [2]) [µg/mL],MIC (Staphylococcus aureus [3]) [µg/mL],MIC (Streptococcus pneumoniae [4]) [µg/mL],Selectivity ratio (Haemophilus influenzae [5]),Selectivity ratio (Staphylococcus aureus [6]),MIC (Staphylococcus aureus [7]) [µg/mL],MBC (Haemophilus influenzae [8]) [µg/mL],Selectivity ratio (Streptococcus pneumoniae [9]),MBC (Streptococcus pneumoniae [10]) [µg/mL],Selectivity ratio (Streptococcus pneumoniae [11]),MIC (Streptococcus pyogenes [12]) [µg/mL],Selectivity ratio (Streptococcus pneumoniae [13]),MBC (Staphylococcus aureus [14]) [µg/mL],MIC (Streptococcus pneumoniae [15]) [µg/mL],MBC (Streptococcus pneumoniae [16]) [µg/mL],MIC (Streptococcus pneumoniae [17]) [µg/mL],MBC (Staphylococcus aureus [18]) [µg/mL],MIC (Haemophilus influenzae [19]) [µg/mL],MBC (Streptococcus pyogenes [20]) [µg/mL]
CC[C@H]1OC(=O)[C@H](C)[C@@H](OC(=O)CCN2CCN(c3cc4c(cc3F)c(=O)c(C(=O)O)cn4CC)CC2)[C@H](C)[C@@H](O[C@@H]2O[C@H](C)C[C@H](N(C)C)[C@H]2O)[C@](C)(OC)C[C@@H](C)/C(=N\OCC#Cc2cncc(C(=O)NC)c2)[C@H](C)[C@H]2OC(=O)O[C@@]21C,>8,1,64,0.12,1,>4,> 256,16,1,> 64,8,16,>8,> 256,0.12,0.12,8,> 256,16,> 128
CC[C@H]1OC(=O)[C@H](C)[C@@H](OC(=O)CCN2CCN(c3cc4c(cc3F)c(=O)c(C(=O)O)cn4C3CC3)CC2)[C@H](C)[C@@H](O[C@@H]2O[C@H](C)C[C@H](N(C)C)[C@H]2O)[C@](C)(OC)C[C@@H](C)/C(=N\OCC#Cc2cncc(C(=O)NC)c2)[C@H](C)[C@H]2OC(=O)O[C@@]21C,>8,0.5,64,0.12,1,>4,> 256,4,8,32,4,16,8,> 256,0.03,0.25,4,> 256,4,> 128
CC[C@H]1OC(=O)[C@H](C)[C@@H](OC(=O)CCN2CCN(c3nc4c(cc3F)c(=O)c(C(=O)O)cn4CC)CC2)[C@H](C)[C@@H](O[C@@H]2O[C@H](C)C[C@H](N(C)C)[C@H]2O)[C@](C)(OC)C[C@@H](C)/C(=N\OCC#Cc2cncc(C(=O)NC)c2)[C@H](C)[C@H]2OC(=O)O[C@@]21C,>8,0.25,64,0.06,1,>4,> 256,32,1,> 32,4,4,>8,> 256,0.03,0.03,4,> 256,32,> 32
CC[C@H]1OC(=O)[C@H](C)[C@@H](OC(=O)CCNCCCCCCCNc2cc3c(cc2F)c(=O)c(C(=O)O)cn3C2CC2)[C@H](C)[C@@H](O[C@@H]2O[C@H](C)C[C@H](N(C)C)[C@H]2O)[C@](C)(OC)C[C@@H](C)/C(=N\OC)[C@H](C)[C@H]2OC(=O)O[C@@]21C,8,2,2,2,1,8,128,256,2,16,1,0.016,2,> 256,0.125,0.25,8,16,256,0.125
CC[C@H]1OC(=O)[C@H](C)[C@@H](OC(=O)CCNCCCCNc2cc3c(cc2F)c(=O)c(C(=O)O)cn3C2CC2)[C@H](C)[C@@H](O[C@@H]2O[C@H](C)C[C@H](N(C)C)[C@H]2O)[C@](C)(OC)C[C@@H](C)/C(=N\OC/C=C/c2cncc(C(=O)NC)c2)[C@H](C)[C@H]2OC(=O)O[C@@]21C,>8,0.06,32,0.06,2,>8,> 256,4,>=1,2,1,0.12,1,> 256,≤ 0.008,0.008,2,> 256,2,> 1
CC[C@H]1OC(=O)[C@H](C)[C@@H](OC(=O)CCNCCCCCCNc2cc3c(cc2F)c(=O)c(C(=O)O)cn3C2CC2)[C@H](C)[C@@H](O[C@@H]2O[C@H](C)C[C@H](N(C)C)[C@H]2O)[C@](C)(OC)C[C@@H](C)/C(=N\OC)[C@H](C)[C@H]2OC(=O)O[C@@]21C,>8,1,4,0.5,1,4,128,256,1,4,2,≤ 0.008,4,> 256,0.062,0.062,1,16,256,> 0.062
CC[C@H]1OC(=O)[C@H](C)[C@@H](OC(=O)CCNCCCCNc2cc3c(cc2F)c(=O)c(C(=O)O)cn3C2CC2)[C@H](C)[C@@H](O[C@@H]2O[C@H](C)C[C@H](N(C)C)[C@H]2O)[C@](C)(OC)C[C@@H](C)/C(=N\OC/C=C/c2ccc3c(c2)c(=O)c(C(N)=O)cn3CC)[C@H](C)[C@H]2OC(=O)O[C@@]21C,>8,0.06,64,0.06,1,>4,> 256,8,2,2,1,0.25,8,> 256,0.06,0.12,0.25,> 256,8,> 2
CC[C@H]1OC(=O)[C@H](C)[C@@H](OC(=O)CCN2CCN(c3cc4c(cc3F)c(=O)c(C(=O)O)cn4C3CC3)CC2)[C@H](C)[C@@H](O[C@@H]2O[C@H](C)C[C@H](N(C)C)[C@H]2O)[C@](C)(OC)C[C@@H](C)/C(=N\OC/C=C/c2cncc(C(=O)NC)c2)[C@H](C)[C@H]2OC(=O)O[C@@]21C,>8,0.5,64,0.12,1,>4,> 256,4,2,> 16,4,8,>8,> 256,0.03,0.06,2,> 256,4,> 64
CC[C@H]1OC(=O)[C@H](C)[C@@H](OC(=O)CCNCCCCNc2cc3c(cc2F)c(=O)c(C(=O)O)cn3C2CC2)[C@H](C)[C@@H](O[C@@H]2O[C@H](C)C[C@H](N(C)C)[C@H]2O)[C@](C)(OC)C[C@@H](C)/C(=N\OCC#Cc2cncc(NC(C)=O)c2)[C@H](C)[C@H]2OC(=O)O[C@@]21C,>8,0.03,32,0.03,1,2,> 256,4,1,0.5,1,0.5,8,> 256,0.016,0.016,0.06,64,4,> 4
CC[C@H]1OC(=O)[C@H](C)[C@@H](OC(=O)CCNCCCCNc2cc3c(cc2F)c(=O)c(C(=O)O)cn3C2CC2)[C@H](C)[C@@H](O[C@@H]2O[C@H](C)C[C@H](N(C)C)[C@H]2O)[C@](C)(OC)C[C@@H](C)/C(=N\OC)[C@H](C)[C@H]2OC(=O)O[C@@]21C,2,0.5,4,0.5,2,2,128,32,2,16,1,≤ 0.008,2,> 256,0.062,0.125,8,8,16,0.016
